Drawing on the METLIN SMRT retention time set (Domingo-Almenara et al. 2019), this text covers RP-LC retention time for 78 compounds.

The nature of the data set: gradient 5% acetonitrile 3 min, to 50% in 2 min, to 85% in 15 min, held 3 min, 100 µL/min. The settings on record: column: Zorbax Extend-C18 2.1 x 50 mm; eluents: water / acetonitrile, 0.1% formic acid. The method, boiled down:
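Using water and acetonitrile that each contained 0.1% formic acid, mixtures of ~100 pure standards were separated at 100 μL/min on a Zorbax Extend-C18 column (2.1 × 50 mm, 1.8 μm). The HPLC fed a quadrupole time-of-flight mass spectrometer working in positive and negative ionization mode, with dead and dwell volumes of 40 μL and 900 μL. Data were acquired over 3 months. Retention time was read from computationally picked adduct peaks after manual inspection of each.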
`CC(=O)c1ccc(NC(=O)CCSc2ccc(Cl)cc2)cc1` showed an RP-LC retention time of 887 s.

Regarding `CCN1CCCn2cc(S(=O)(=O)NCCCc3ccccc3)cc2C1=O`, the RP-LC retention time came out at 785 s.

Compound `Cn1nc(-c2nnc(-c3ccccc3)o2)c2c1CCN(S(=O)(=O)c1cccc(Cl)c1)C2` showed an RP-LC retention time of 990 s.

As to `CCN(C(=O)C1CCCN1S(=O)(=O)c1cc2c(cc1Cl)NC(=O)CO2)c1cccc(C)c1` (stereo not drawn), the RP-LC retention time amounted to 816 s.

The compound `CCOC(=O)c1sc(NC(=O)C(C)Oc2ccc(OC)cc2)nc1C` (stereo not drawn) registered an RP-LC retention time of 996 s.

For the compound `COc1ccc(N2CCN(c3cc(SCC(=O)Nc4cc(C)ccc4C)ncn3)CC2)cc1`, the RP-LC retention time was 1020 s.

Compound `CCn1cc(-c2nc(CC(=O)Nc3ccc(Cl)cc3)cs2)c2cccnc21` gave an RP-LC retention time of 996 s.

In turn, `CCCN1CCN(C(=O)CN2CCN(C(=O)Nc3ccc(Br)cc3)CC2=O)CC1` came in with an RP-LC retention time of 597 s.

With `CC(=O)N1CC[C@]2(CO)CN(C(=O)c3ccoc3C)C[C@@H]2C1`, the RP-LC retention time was determined as 583 s.

Turning to `Fc1ccc(-c2nc(-c3cn(-c4cccc(F)c4)nn3)no2)cc1`, the RP-LC retention time was 1080 s.

As for `CC(CNC(=O)C1CCN(C(=O)C2Sc3ccccc3NC2=O)CC1)c1ccccc1` (stereo not drawn), the RP-LC retention time stood at 776 s.

Turning to `N#Cc1cnn2ccn(C3OC(CO)C(O)C3O)c12` (stereo not drawn), the RP-LC retention time is 614 s.

As to `COc1cc(CN2CCC[C@H]2c2nc(C3CCOCC3)n[nH]2)cc(OC)c1`, the RP-LC retention time was found to be 593 s.

`Cc1nnc(-c2cc3ccccc3n2CC(=O)Nc2ccc(C(F)(F)F)cc2)o1` yielded an RP-LC retention time of 966 s.

`Cc1ccccc1Cn1nc2c(S(=O)(=O)N3CCCC3)cccn2c1=O` came in with an RP-LC retention time of 846 s.

`O=C(Nc1ccc(OCC(=O)N2CCN(c3ccc(Cl)cc3)CC2)nc1)C1CC1` came in with an RP-LC retention time of 808 s.

In turn, `O=C(Cn1cccc1-c1nnc(C2CC2)o1)N1CCN(c2ccccc2)CC1` gave an RP-LC retention time of 821 s.

The compound `O=C(Nc1ccc(F)c(C(F)(F)F)c1)C1COCC(=O)N1Cc1ccccc1` (stereo not drawn) gave an RP-LC retention time of 824 s.

On to `O=C(c1ccccn1)N1CCCn2nc(-c3ccc(Cl)cc3)cc2C1`, for which the RP-LC retention time turned out to be 817 s.

In the case of `Cc1ccc(-c2cc(C(=O)O)c3ccc(Br)cc3n2)cc1C`, the RP-LC retention time was found to be 1240 s.

With `COc1ccc(-c2nnc(-c3ccccc3)o2)cc1S(=O)(=O)NC(C)C`, the RP-LC retention time is 870 s.

With `COc1ccc(CN2C(=O)COC[C@H]2C(=O)NC2CC2)c(OC)c1`, the RP-LC retention time worked out at 643 s.

`Cc1ccc(Cn2nc3c(S(=O)(=O)N4CCN(c5ccc(F)cc5)CC4)cccn3c2=O)c(C)c1` registered an RP-LC retention time of 1080 s.

For the compound `COC(=O)c1cc(OCC(=O)Nc2ccc(F)cc2)c2cc(OC)c(OC)cc2n1`, the RP-LC retention time was 750 s.

Compound `NS(=O)(=O)c1ccc(NC(=O)C2CCCN(c3ccc(=O)n(-c4cccc(F)c4)n3)C2)cc1` (stereo not drawn) registered an RP-LC retention time of 703 s.

Consider `O=C(Nc1ccc(F)cc1)N1CCCCCC1`, for which the RP-LC retention time is 738 s.

As to `O=C(CCn1cnc2cc(-c3noc(-c4ccccc4F)n3)ccc21)N1CCCC1`, the RP-LC retention time came out at 730 s.

`CCOc1ccc(N2CC(c3nc(-c4ccc(C)cc4)no3)CC2=O)cc1` (stereo not drawn) returned an RP-LC retention time of 1090 s.

Turning to `O=C(Cn1ncc2c(N3CCN(c4ccccn4)CC3)ncnc21)Nc1ccc(F)c(F)c1`, the RP-LC retention time was determined as 572 s.

`COc1ccc(C2CCCN2C(=O)Cn2nc(C(F)(F)F)cc2C)cc1` (stereo not drawn) registered an RP-LC retention time of 953 s.

`O=c1n(Cc2cc(F)cc(F)c2)nc2c(S(=O)(=O)N3CCCCC3)cccn12` yielded an RP-LC retention time of 903 s.

The compound `Cc1cc(N2CCC(NC(=O)Nc3cc(F)cc(F)c3)C2=O)ccc1F` (stereo not drawn) gave an RP-LC retention time of 931 s.

With `Cc1c(C(=O)N2CCOCC2)sc2nc(-c3ccccc3)c(NC(C)(C)C)n12`, the RP-LC retention time amounted to 778 s.

As for `CC(NC(=O)Cc1cccn1-c1ccc(F)cc1)c1ccccc1` (stereo not drawn), the RP-LC retention time worked out at 962 s.

The compound `CN1C(=O)CS(=O)(=O)C12CCN(C(=O)c1ccc3c(c1)OCO3)CC2` had an RP-LC retention time of 628 s.

In turn, `CC1Cc2ccccc2N1C(=O)c1ccc(=O)n(CCC(=O)NC2CCCCCC2)n1` (stereo not drawn) returned an RP-LC retention time of 861 s.

The compound `CCCN1CCN(C(=O)Cn2nc(C)c3sc(-c4ccccc4)nc3c2=O)CC1` registered an RP-LC retention time of 623 s.

As to `COc1ccc(C2Cn3nnc(-c4nc(-c5ccc(Cl)cc5)no4)c3CO2)cc1` (stereo not drawn), the RP-LC retention time worked out at 1240 s.

Take `Cc1noc(C)c1CC(=O)N1CCOc2ccc(NC(=O)C3CC3)cc2C1`: the RP-LC retention time turned out to be 676 s.

On to `Cn1c(C(=O)NCC2CCCO2)cc2c(=O)oc3ccccc3c21` (stereo not drawn), for which the RP-LC retention time was 713 s.

The compound `CCCN(C)C(=O)c1ccc2c(c1)Sc1ncccc1C(=O)N2C(C)C` had an RP-LC retention time of 760 s.

In the case of `CCOc1ccccc1-c1csc(NC(=O)Cc2csc(C)n2)n1`, the RP-LC retention time was 943 s.

In the case of `COc1ccc(N2CCN(Cc3cc(=O)c(OC)cn3CC(=O)NC(C)C)CC2)cc1`, the RP-LC retention time was 557 s.

As for `Cc1nc(-c2ccc(C(=O)NC3CCCCC3)cc2)cs1`, the RP-LC retention time stood at 900 s.

For `Cc1noc(C2(NC(=O)c3ccc4ccccc4n3)CCCCC2)n1`, the RP-LC retention time turned out to be 1060 s.

Compound `Cn1cc(C(=O)Nc2cccc(Cl)c2)c2nn(-c3ccccc3)c(=O)c-2c1` came in with an RP-LC retention time of 1040 s.

For the compound `O=C(O)c1nnn(-c2cccc(Cl)c2)c1C(F)(F)F`, the RP-LC retention time is 806 s.

In the case of `CCOc1ccc(CNC(=O)C2CCCN(c3cc(=O)n(C)c(=O)n3CC)C2)cc1` (stereo not drawn), the RP-LC retention time turned out to be 812 s.

As for `COc1ccc(CNC(=O)C(C)n2ccc3cc(S(=O)(=O)N4CCCCC4)ccc32)c(OC)c1` (stereo not drawn), the RP-LC retention time was found to be 959 s.

In turn, `CCCN1C(=O)COc2ccc(-c3csc(NC(C)=O)n3)cc21` had an RP-LC retention time of 806 s.

`C[C@@H]1OC(Oc2ccccc2-c2cc(=O)c3c(O)cc(O)c([C@@H]4O[C@H](CO)[C@@H](O)[C@H](O)[C@H]4O)c3o2)[C@H](O)[C@H](O)[C@H]1O` (stereo partly drawn) displayed an RP-LC retention time of 622 s.

Consider `CCCC(=O)N1CCc2c([nH]c3ccccc23)C1c1ccc(Cl)cc1` (stereo not drawn), for which the RP-LC retention time was 578 s.

For the compound `COCCCN(CC(=O)N1CCc2sccc2C1COc1ccccc1F)C(C)=O` (stereo not drawn), the RP-LC retention time is 764 s.

Consider `CCN(C(=O)c1cc2c(=O)n(CC)c3ccccc3n2n1)c1ccc(F)cc1`, for which the RP-LC retention time stood at 945 s.

Compound `COc1ccc(NC(=O)Cn2cccc(-c3nc(-c4ccc(OC)c(OC)c4)no3)c2=O)cc1OC` had an RP-LC retention time of 722 s.

In the case of `COc1ccc(CNC2=NCCNC23CCN(S(=O)(=O)c2c(C)cc(C)cc2C)CC3)cc1`, the RP-LC retention time was found to be 834 s.

As for `CCn1cc(C(=O)Nc2cccc(OC)c2)c2cccnc21`, the RP-LC retention time turned out to be 809 s.

`CCN(CC)C(=O)COc1ccc(NC(=O)C2CC2)cn1` displayed an RP-LC retention time of 664 s.

For `COc1ccc(-c2nc3ccc(Cl)cn3c2Nc2ccc3c(c2)OCO3)cc1`, the RP-LC retention time amounted to 748 s.

As to `O=S(=O)(Nc1ccc2c(c1)OCO2)c1ccc2ccccc2c1`, the RP-LC retention time worked out at 953 s.

With `O=C(NC1CCN(C(=O)c2cc(-c3cccs3)[nH]n2)CC1)c1ccc(Cl)cc1`, the RP-LC retention time came to 778 s.

Consider `Cc1ccn2cc(-c3ccc(NS(=O)(=O)c4ccc5nc(C)sc5c4)cc3)nc2n1`, for which the RP-LC retention time was determined as 641 s.

In turn, `Cc1ccn2cc(C(=O)N3CCN(c4cccc(C)c4C)CC3)nc2c1` returned an RP-LC retention time of 769 s.

In turn, `CNC(=O)c1sc2nc(-c3ccc(OC)cc3)c(NC(C)(C)C)n2c1C` gave an RP-LC retention time of 737 s.

`Cc1cc(C)cc(-c2nnc(Cc3nc(-c4ccc(Br)cc4)no3)o2)c1` returned an RP-LC retention time of 1270 s.

For the compound `O=C(Cc1cccs1)Nc1cccc2ccc(-n3ccnc3)nc12`, the RP-LC retention time amounted to 610 s.

Consider `Cc1cc(C)c(NC(=O)CSc2nccc(N3CCN(c4cc(C)ccc4C)CC3)n2)c(C)c1`, for which the RP-LC retention time was 1080 s.

Compound `CCOc1ccc2nc(NC(=O)C3CCCN(c4ncnc5c4nc4n5CCCCC4)C3)sc2c1` (stereo not drawn) had an RP-LC retention time of 1000 s.

Compound `CN1C(=O)CCC2(CNC(=O)Nc3ccc4c(c3)OCCO4)CCCC=C12` (stereo not drawn) yielded an RP-LC retention time of 722 s.

In turn, `Cc1oc(C2CCN(S(=O)(=O)c3ccc(Cl)cc3)CC2)nc1C(=O)N(C)C` yielded an RP-LC retention time of 863 s.

The compound `CCc1noc(NC(C)=O)c1-c1ccc(C)c(S(=O)(=O)N2CCCCC2)c1` came in with an RP-LC retention time of 879 s.

`CC(C)N1C(=O)c2cccnc2Sc2cc(NC(=O)CCc3ccccc3)ccc21` registered an RP-LC retention time of 922 s.

For the compound `CC(C)N1CCN(c2ncccc2-c2nnc(-c3ccc(Cl)cc3)o2)CC1`, the RP-LC retention time amounted to 670 s.

In turn, `Cn1nc(C(=O)Nc2ccccc2)c2c1CCN(C(=O)Nc1ccccc1Br)C2` had an RP-LC retention time of 903 s.

With `Cc1ccc(C)c(-c2csc(NC(=O)COc3ccccc3)n2)c1`, the RP-LC retention time stood at 1150 s.

In the case of `COc1ccc(N2CCN(S(=O)(=O)c3cc(-c4cc(C(F)(F)F)on4)sc3C)CC2)cc1`, the RP-LC retention time stood at 1270 s.

`COc1ccccc1NC(=O)c1ccc(Br)cc1F`: the RP-LC retention time was 1070 s.

Consider `Cn1ccc2cc(S(=O)(=O)N3CCC(C(=O)N4CCN(Cc5ccccc5)CC4)CC3)ccc21`, for which the RP-LC retention time amounted to 671 s.
